Experiment: recombinant barcode read abundance after kanamycin selection (control-corrected) (log10(CPM+1)); higher = more efficient recombination; sequences stand for … in AGTGCAGAGAAAATCGGCCAGTTTTCTCTGCCTGCAGTCCGCATGCCGT…ATTTATGCAGCGGACTGCCTTTCTCCCAAAGTGATAAACCGGACAGTATCATGGACCGGTTTTCCCGGTAATCCGTATTTGCAAGGTTGGTTTCACT; site = the 11-nt target
How it was run: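 For this pooled screen, each oligo contained a promoter, a target, a barcode and the J23119-driven first 104 bases of the bridge RNA. Gibson cloning placed it into a vector supplying the remaining 73 bp and a T7-inducible recombinase, and the pool was co-electroporated into E. coli with a donor plasmid. Recombination efficiency is derived from barcode counts per million at recombinant junctions after averaging and control correction, and is expressed on a log scale as log10(CPM+1), with selection on chloramphenicol/ampicillin/kanamycin plus 0.1 mM IPTG against a chloramphenicol/ampicillin LB agar control.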

| Sequence | recombinant barcode read abundance (log10) |
| --- | --- |
| TTATAAAGATGGGTTCTAACCTGTTGCCTTC [TTATAAACTAG_LTGcore_GA_RTGcore_GA] (site TTATAAACTAG) (LTG core: GA, RTG core: GA) | 0.0936 |
| TTATAAAGGTGGGTTCTAACCTGTTGCCTCC [TTATAAACTAG_LTGcore_GG_RTGcore_GG] (site TTATAAACTAG) (LTG core: GG, RTG core: GG) | 0.154 |
| TTATAAATCTGGGTTCTAACCTGTTGCCTGA [TTATAAACTAG_LTGcore_TC_RTGcore_TC] (site TTATAAACTAG) (LTG core: TC, RTG core: TC) | 0.244 |
